Measurements published in patent US20140323533A1, “COMBINATION OF ANTI-CTLA4 ANTIBODY WITH TUBULIN MODULATING AGENTS FOR THE TREATMENT OF PROLIFERATIVE DISEASES” (BRISTOL-MYERS SQUIBB COMPANY, priority 2013, published 2014).
Values joined by “and” are separate entries in the source; they are usually repeats but may differ in a detail not shown here. Equal values may be shown once.

Experiments:
[1] = test system: CT26 colon carcinoma; assay: Antitumor activity in the CT26 colon tumor model; format: in vivo, mouse; settings: for % Complete Regressions/Total # mice: IP every 4 days x3, ixabepilone 8, paclitaxel 24, CTLA-4 mAb 20 mg/kg; for antitumor effect in words: text and FIG. 2
Protocol: (§1) Tumor cell lines were maintained in vitro. Treatments were initiated when the subcutaneous tumors reached a median size between 100-200 mm^3 (established model) or prior to detection (initiation model). Tumors were measured twice weekly and tumor size (mm^3) was calculated as (length×width^2)/2. Body weights were obtained weekly. The tumor models used in these studies are outlined in Table 1.
(§2) The dose levels, routes and dosing schedules are indicated for each particular study described below. Antibodies and chemotherapeutic agents were administered intraperitoneally (i.p.). Each treatment regimen consisted of a cohort of eight to ten mice. Anti-tumor activity, defined as percentage tumor growth inhibition, was calculated as follows: […]
Next, the antitumor effects of CTLA-4 mAb and nmicrotubule-stabilizing agents were studied in a model not sensitive to ixabepilone or paclitaxel, the CT26 colon carcinoma model.

[2] = test system: EMT-6 mammary carcinoma; assay: Antitumor activity in the EMT-6 mammary tumor model; format: in vivo, mouse; settings: for % Tumor-free Mice / T-C: Study 27; for T-C: treatment from day 3/4, every 4 days x3 IP, ixabepilone 8, paclitaxel 24, CTLA-4 mAb 20 mg/kg
Protocol: as §1, §2
(§3) In addition, another parameter used to define efficacy was to determine time to tumor progression to target size (T−C), where the time (days) for the median tumor size of control (C) mice to reach target size was subtracted to the time for median tumor size of treated (T) mice to reach target size.

[3] = test system: SA1N fibrosarcoma; assay: Antitumor activity in the SA1N fibrosarcoma tumor model; format: in vivo, mouse; settings: for % TGI: IP every 4 days x3; for CR/Total # mice: complete regressions; for T-C: target size 500 mm^3
Protocol: as §1
The dose levels, routes and dosing schedules are indicated for each particular study described below. Antibodies and chemotherapeutic agents were administered intraperitoneally (i.p.). Each treatment regimen consisted of a cohort of eight to ten mice. Anti-tumor activity, defined as percentage tumor growth inhibition, was calculated as follows:
% Tumor Growth Inhibition=100−[(Tt/To)/(Ct/Co)]/100−(Ct/Co)
as §3
SA1N fibrosarcoma is an inherently immunogenic tumor line which is sensitive to the effects of CTLA-4 blockade. Two studies were conducted to determine the effect of CTLA-4 blockade in combination with ixabepilone or paclitaxel in this tumor model (see Table 1). Animals were implanted with SA1N cells subcutaneously and treatments were initiated when tumors reached 100-150 mm^3. Experimental groups consisted of cohorts of 8 mice. Ixabepilone, paclitaxel and CTLA-4 mab were administered intraperitoneally (IP) every 4 days for 3 doses. In the combination groups, CTLA-4 mab was administered one day after each chemotherapy treatment.

[4] = test system: M109 lung carcinoma; assay: Antitumor activity in the M109 lung carcinoma tumor model; format: in vivo, mouse; settings: for % Tumor-Free Mice after Initial Tumor Implantation: Study 40, footnote: percentage of animals that develop tumors following implantation on Day 0
Protocol: as §1, §2
The antitumor effects of CTLA-4 mAb and microtubule-stabilizing agents were also studied in the M109 lung carcinoma model, a tumor line which is not sensitive to the effect of CTLA-4 blockade. In these studies treatments with chemotherapeutic agents were initiated when tumors were palpable, on day 3 after tumor implantation. This regimen was selected to produce a measurable antitumor effect, which was not observed when treatments were initiated at a later time. As in the studies conducted in the SA1N and EMT-6 tumor lines, CTLA-4 mAb was dosed one day after treatment with chemotherapy.

[5] = test system: A2780, HCT116, LS174T, HCT116/VM46, Pat-7, A2780Tax, Pat-21 tumor models; assay: Preclinical pharmacology studies of Compound 1 in tumor models; format: in vivo
[6] = test system: SA1N fibrosarcoma, M109 lung carcinoma, EMT-6 mammary carcinoma, CT-26 colon carcinoma and B16 melanoma; assay: Efficacy studies across murine tumor lines (summary); format: in vivo, mouse; settings: animals with complete regressions rechallenged with lethal dose of tumor cells
Protocol: Efficacy studies were conducted in 3 different tumor lines implanted in immunocompetent mice: SAlN fibrosarcoma, MI09 lung carcinoma and EMT-6 mammary carcinoma. […] For the combination group, anti-CTLA-4 mAb was administered one day after each ixabepilone treatment. In selected studies, animals with complete tumor regressions were rechallenged with a lethal dose of tumor cells to determine the level of immune protection. In other studies, the combined efficacy of CTLA-4 mAb+ixabepilone was compared directly with CTLA-4 InAb+paclitaxel.
The effect of an anti-mouse CTLA-4 blocking antibody, the murine homolog of ipilimumab, was evaluated in multiple murine tumor models in combination with the microtubule-stabilizing agents paclitaxel (TAXOL®), and ixabepilone (IXEMPRA®). Efficacy studies were conducted in 5 different tumor lines: SA1N fibrosarcoma, M109 lung carcinoma, EMT-6 mammary carcinoma, CT-26 colon carcinoma and B16 melanoma. Ixabepilone, paclitaxel and CTLA-4 mAb were administered at their optimal dose and schedule: ixabepilone, 8 mg/kg; paclitaxel, 24 mg/kg, CTLA-4 mAb, 20 mg/kg every 4 days for 3 doses. For the combination group, anti-CTLA-4 mAb was administered one day after each ixabepilone or paclitaxel treatment. In selected studies, animals with complete tumor regressions were rechallenged with a lethal dose of tumor cells to determine the level of immune protection.

[7] = test system: M109 lung carcinoma; assay: M109 tumor rechallenge of tumor-free mice; format: in vivo, mouse
Excerpt: To determine whether the combination of CTLA-4+ixabepilone produced a memory immune response able to reject a secondary tumor challenge, animals free of tumors by day 97 were re-challenge with a lethal M109 cell inoculum.

[8] = Study 17, calculated Day 33, ixabepilone 8, paclitaxel 24, CTLA-4 mAb 20 mg/kg
[9] = Study 17, study terminated day 116

## 5beta,20-Epoxy-1,2alpha,4,7beta, 10beta, 13alpha-hexahydroxytax-11-en-9-one 4,10-diacetate 2-benzoate 13-ester with (2R,3S)—N-benzoyl-3-phenylisoserine [Paclitaxel]
[1]
  % Complete Regressions/Total # mice: 0/10
  antitumor effect in words: neither paclitaxel or ixabepilone produced any measurable antitumor activity
[2]
  antitumor effect in words: ineffective
  % Tumor-free Mice: 0%
  T-C: 0 days
[3]; Study 11, calculated Day 34, paclitaxel 24, CTLA-4 mAb 20 mg/kg
  % TGI: 88%
[3]; Study 11
  CR/Total # mice: 3/8
[3]; Study 11, study terminated day 52
  T-C: 13 days
[3]; [8]
  % TGI: 0%
[3]; Study 17
  CR/Total # mice: 0/8
[3]; [9]
  T-C: 0 days
[3]; both SA1N studies
  antitumor effect in words: variable effect
[4]; FIG. 1
  antitumor effect in words: did not produce antitumor effects
[4]
  % Tumor-Free Mice after Initial Tumor Implantation: 100%

## C/C(=C\c1csc(C)n1)[C@@H]1C[C@@H]2O[C@]2(C)CCC[C@H](C)[C@H](O)[C@@H](C)C(=O)C(C)(C)[C@@H](O)CC(=O)N1 (relative stereo) [Compound 1, [1S-[1R*,3R*(E),7R*,10S*,11R*,12R*,16S*]]-7,11-dihydroxy-8,8,10,12,16-pentamethyl-3-[1-methyl-2-(2-methyl-4-thiazolyl)ethenyl]-4-aza-17-oxabicyclo[14.1.0]heptadecane-5,9-dione]
[5]; oral vs parenteral administration
  oral efficacy in words: orally efficacious
[5]; paclitaxel-sensitive and paclitaxel-resistant human tumor models
  antitumor activity in words: very impressive and broad spectrum of antitumor activity

## C/C(=C\c1csc(C)n1)[C@@H]1C[C@@H]2O[C@]2(C)CCC[C@H](C)[C@H](O)[C@@H](C)C(=O)C(C)(C)[C@@H](O)CC(=O)N1 [Ixabepilone, (1S,3S,7S,10R,11S,12S,16R)-7,11-dihydroxy-8,8,10,12,16-pentamethyl-3-[(1E)-1-methyl-2-(2-methyl-4-thiazolyl)ethenyl]-17-oxa-4-azabicyclo[14.1.0]heptadecane-5,9-dione]
[1]
  % Complete Regressions/Total # mice: 0/10
  antitumor effect in words: neither paclitaxel or ixabepilone produced any measurable antitumor activity
[6]
  protection against tumor rechallenge in words: only partial protection
[2]
  % Tumor-free Mice: 20%
  T-C: 19 days
[7]; Study 40, footnote: percentage of mice that develop tumors after tumor rechallenge on Day 95
  % mice developing tumors after rechallenge: 75%
[7]; tumor-free mice re-challenged with lethal M109 inoculum
  mice that developed tumors after rechallenge, percent: 80%
[7]; tumor-free mice re-challenged with lethal M109 inoculum, count
  mice that developed tumors after rechallenge: 4 out of 5
[3]; Study 9
  CR/Total # mice, percentage in parentheses (% CR): (37.5) %
  CR/Total # mice: 3 out of 8 and 3/8
[3]; Study 9, calculated Day 36, ixabepilone 8 mg/kg, CTLA-4 mAb 20 mg/kg
  % TGI: 92%
[3]; Study 9, study terminated day 39
  T-C: 11 days
[3]; Study 17
  CR/Total # mice, percentage in parentheses (% CR): (0) %
  CR/Total # mice: 0/8
[3]; [8]
  % TGI: 83%
[3]; [9]
  T-C: 7 days
[4]
  treated animals in which tumor growth was inhibited: 50%
  % Tumor-Free Mice after Initial Tumor Implantation: 50%
